According to patent US8258130B2 (Sanofi, priority 2007, dated 2012):

Biological target: human h-PGDS (Homo sapiens, UniProt O60760)
Experiment: Enzyme Immunoassay (EIA) method, inhibition of hematopoietic PGD2 synthase
Format: biochemical
Settings: EIA assay, PGD2 formed from PGH2 by human h-PGDS
Procedure: Assay 2: Enzyme Immunoassay (EIA) Method
• a. Preparation of 0.1M K2HPO4/KH2PO4 buffer (pH 7.4) • Prepare 0.1 M KH2PO4 from 1M KH2PO4 (Sigma, Cat# P-8709) • Prepare 0.1 M K2HPO4 from powder of K2HPO4 (Fisher, BP363-500) • Mix 0.1 M K2HPO4 with 0.1 M KH2PO4 to adjust pH to 7.4. • b. Preparation of 0.5% γ-globulin • Add 0.1 g of γ-globulin (Sigma, Cat# G-5009) to 20 mL 0.1 M K2HPO4/KH2PO4 buffer (pH 7.4) and make 1-mL/vial aliquots and store in −80° C. • c. Preparation of 100 mM GSH • Add 307 mg of GSH (Sigma, Cat# G-6529) to 10 mL 0.1 M K2HPO4/KH2PO4 buffer (pH 7.4) and store at −80° C. • d. Preparation of Reaction buffer: • 198 mL of 0.1M K2HPO4/KH2PO4 buffer (pH 7.4) • 2 mM GSH—Prepared from 100 mM GSH • 0.4 g Glycerol • 2 mL of 0.5% γ-globulin • Add 0.4 g of glycerol and 2 mL of 0.5% γ-globulin to 198 mL of 0.1 M K2HPO4/KH2PO4 • buffer (pH7.4). • Add 0.4 mL of 100 mM GSH to 19.6 mL reaction buffer before the assay (enough for two 96-well plates). • e. Preparation of FeCl2/citric acid stopping solution: (8 mg/mL FeCl2, 0.1 M citric acid) • Add 40 mg fresh FeCl2 (IGN, Cat# 158046) to 5 mL 0.1 M citric acid (Sigma, Cat# C0759). • f. Preparation of MOX reagent: • 10% EtOH—Add 1 mL of EtOH to 9 mL of ultra pure H2O • Dissolve 0.1 g of methoxyl amine (Cayman, Cat# 400036/) in 10% EtOH (10 mL). • Add 0.82 g of sodium acetate (Cayman, Cat#400037) to MOX solution and dissolve. II. Materials and Method • Dimethylsulfoxide (DMSO; Sigma; Cat# D2650) • Prostaglandin D2-MOX express EIA kit (Caymen Chemical, Catalog No. 500151)
Before the assay, cool down 10 mL of acetone in polypropylene tubes and empty 96 well plates in ice. All the procedures except compound dilution are performed on ice.
• 1. Dilute compound in DMSO
• 2. Dilute 2 μL of each above concentration of compound to 38 μL of reaction buffer in 96-well plates and mix. IV. Enzyme and Substrate Solution Preparation • 1 Preparation of 0.39 ng/μL enzyme solution (0.35 ng/μL at final after compound addition). • Mix 4 μL of 4 mg/mL human h-PGDS with 396 μL of reaction buffer (to give enzyme concentration 40 μg/mL). Add 46.8 μL of 40 μg/mL h-PGDS to 4.753 mL of reaction buffer to give a total volume of 4.8 mL • 2. Preparation of Substrate Solution (PGH2): Add 0.375 mL of 0.1 mg/mL of PGH2 to 1.625 mL acetone. V. Enzyme Reaction: • 1. Add 60 μL of enzyme solution to compound well and positive control (without compound) in U-bottom polypropylene plate on ice. • 2. Add 60 μL of reaction buffer and 6.6 μL of 5% DMSO in reaction buffer into negative control wells in the plate. • 3. Add 6.6 μL of diluted compound in reaction buffer to the compound wells and mix. • 4. Add 6.6 μL of 5% DMSO in reaction buffer to the positive control well. • 5. Incubate the plate in ice for at least 30 min. • 6. Add 20 μL of substrate (PGH2) solution to compound, negative and positive control wells in the U-bottom 96 well plate on ice. • 7. Dry the plate in cold room for about 25-28 min. • 8. Pipette 45 μL of enzyme solution (above) into 96-wells with dried PGH2 and mix 3 times. Incubate on the ice for 1 min. • 9. Add 45 μL of FeCl2 solution into each wells and mix. • 10. Add 90 μL of MOX solution and mix. • 11. Incubate for 30 min at 60° C. • 12. Dilute the samples 2500× with EIA buffer. VI. EIA Assay • Perform the assay according to the procedure in EIA kit provided by Cayman. Total PGD2 levels (pg/mL) were determined in the samples by EIA kits (Caymen Chemical, Catalog No. 500151) Calculate Amount of PGD2 as Below • Calculated % Positive control according to the equation below; % Positive control=(Compound value−Negative control)/(Positive value−Negative control value)×100. […]

Chain of human h-PGDS (O60760 whole entry): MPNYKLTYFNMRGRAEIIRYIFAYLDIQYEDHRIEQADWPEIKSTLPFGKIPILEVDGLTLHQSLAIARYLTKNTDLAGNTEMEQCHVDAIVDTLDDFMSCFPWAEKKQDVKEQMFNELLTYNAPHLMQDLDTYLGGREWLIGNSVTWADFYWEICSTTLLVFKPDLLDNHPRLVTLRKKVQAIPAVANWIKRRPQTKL

Row | IC50 [µM] | Structure (SMILES)
1 | 0.007 | Cc1nc(-c2ccccn2)ncc1C(=O)Nn1cc(C)c2cc(F)ccc21 [Example 3, 4-Methyl-2-pyridin-2-yl-pyrimidine-5-carboxylic acid (5-fluoro-3-methyl-indol-1-yl)amide]
2 | 0.01 | Cc1cn(NC(=O)c2cnc(-c3cccnc3)nc2)c2ccc(F)cc12 [Example 6, 2-Pyridin-3-yl-pyrimidine-5-carboxylic acid (5-fluoro-3-methyl-indol-1-yl)-amide]
3 | 0.006 | Cc1nc(-c2cccc(F)c2)ncc1C(=O)Nn1cc(C)c2cc(F)ccc21 [Example 10, 2-(3-Fluoro-phenyl)-4-methyl-pyrimidine-5-carboxylic acid (5-fluoro-3-methyl-indol-1-yl)-amide]
4 | 0.008 | Cc1nc(-c2ccccn2)ncc1C(=O)Nn1c(C)cc2cc(F)ccc21 [Example 12, 4-Methyl-2-pyridin-2-yl-pyrimidine-5-carboxylic acid (5-fluoro-2-methyl-indol-1-yl)-amide]
5 | 0.104 | O=C(NN1CCN(C(=O)OCc2ccccc2)CC1=O)c1cnc(-c2ccccc2)nc1 [Example 20, 3-Oxo-4-[(2-phenyl-pyrimidine-5-carbonyl)-amino]-piperazine-1-carboxylic acid benzyl ester]
6 | 0.011 | O=C(Nn1ccc2c(F)cccc21)c1cnc(-c2cccc(F)c2)nc1 [Example 31, 2-(3-Fluorophenyl)pyrimidine-5-carboxylic acid-(4-fluoroindol-1-yl)amide]
7 | 0.005 | Cc1nc(-c2cccc(F)c2)ncc1C(=O)Nn1cc(-c2nnn[nH]2)c2cc(F)ccc21 [Example 42, 2-(3-Fluoro-phenyl)-4-methyl-pyrimidine-5-carboxylic acid [5-fluoro-3-(1H-tetrazol-5-yl)-indol-1-yl]-amide]
8 | 0.263 | O=C(Nn1cnnc1)c1cnc(-c2ccccc2)nc1 [Example 43, 2-Phenyl-pyrimidine-5-carboxylic acid [1,2,4]triazol-4-ylamide]
9 | 0.012 | O=C(NNc1ccccc1F)c1cnc(-c2ccccc2)nc1 [Example 45, 2-Phenyl-pyrimidine-5-carboxylic acid N′-(2-fluoro-phenyl)-hydrazide]
10 | 0.055 | O=C(NN1CCOCC1=O)c1cnc(-c2ccccc2)nc1 [Example 47, 2-Phenyl-pyrimidine-5-carboxylic acid (3-oxo-morpholin-4-yl)-amide]
11 | 0.461 | Cc1nc(-c2ncc(C(=O)NN3CCN(CCO)CC3)cn2)no1 [Example 48, 2-(5-Methyl-[1,2,4]oxadiazol-3-yl)-pyrimidine-5-carboxylic acid [4-(2-hydroxy-ethyl)-piperazin-1-yl]-amide]
12 | 0.342 | O=C(NN1CCOCC1)c1cnc(C(=O)c2ccccc2)nc1 [Example 50, 2-Benzoyl-pyrimidine-5-carboxylic acid morpholin-4-ylamide]
13 | 0.665 | O=C(NN1CCN(CCO)CC1)c1cnc(C(=O)c2ccccc2)nc1 [Example 51, 2-Benzoyl-pyrimidine-5-carboxylic acid [4-(2-hydroxy-ethyl)-piperazin-1-yl]-amide]
14 | 0.055 | O=C(NN1CCCCC1=O)c1cnc(-c2ccccc2)nc1 [Example 56, 2-Phenyl-pyrimidine-5-carboxylic acid N′-(2-oxo-piperidin-1-yl)-amide]
15 | 0.147 | CN(NC(=O)c1cnc(-c2ccccc2)nc1)C1CCCCC1 [Example 57, 2-Phenyl-pyrimidine-5-carboxylic acid N′-cyclohexyl-N′-methyl-hydrazide]
16 | 0.227 | O=C(NN1CCOCC1)c1cnc(Oc2ccccc2)nc1 [Example 58, 2-Phenyoxy-pyrimidine-5-carboxylic acid N′-morpholin-4-yl-amide]
17 | 0.175 | COc1cccc(-c2ncc(C(=O)NN3CC(C)=NNC3=O)cn2)c1 [Example 59, 2-(3-Methoxy-phenyl)-pyrimidine-5-carboxylic acid (6-methyl-3-oxo-2,5-dihydro-3H-[1,2,4]triazin-4-yl)-amide]
18 | 0.107 | O=C(Nn1cc(Br)c(=O)[nH]c1=O)c1cnc(-c2ccccc2)nc1 [Example 72, 2-Phenyl-pyrimidine-5-carboxylic acid (5-bromo-2,4-dioxo-3,4-dihydro-2H-pyrimidin-1-yl)-amide]
19 | 0.02 | O=C(NN1CC(CN2CCOCC2)OC1=O)c1cnc(-c2ccccc2)nc1 (stereo not drawn) [Example 75, 2-Phenyl-pyrimidine-5-carboxylic acid (5-morpholin-4-ylmethyl-2-oxo-oxazolidin-3-yl)-amide]
20 | 0.049 | O=C(NN1CCOC1=O)c1cnc(-c2ccccc2)nc1 [Example 77, 2-Phenyl-pyrimidine-5-carboxylic acid (2-oxo-oxazolidin-3-yl)-amide]
21 | 0.002 | O=C(NN1CCc2ccccc21)c1cnc(-c2ccccc2)nc1 [Example 82, 2-Phenyl-pyrimidine-5-carboxylic acid (2,3-dihydro-indol-1-yl)-amide]
22 | 0.026 | O=C(NN1CCN(C2CCOC2=O)CC1)c1cnc(-c2ccccc2)nc1 (stereo not drawn) [Example 87, 2-Phenyl-pyrimidine-5-carboxylic acid [4-(2-oxo-tetrahydro-furan-3-yl)-piperazin-1-yl]-amide]
23 | 0.057 | O=C(NN1CCN(C(=O)C(F)(F)F)CC1)c1cnc(-c2ccccc2)nc1 [Example 88, 2-Phenyl-pyrimidine-5-carboxylic acid [4-(2,2,2-trifluoro-acetyl)-piperazin-1-yl]-amide]
24 | 0.832 | O=C(NN1CCN(CC(=O)N2CCOCC2)CC1)c1cnc(-c2ccccc2)nc1 [Example 90, 2-Phenyl-pyrimidine-5-carboxylic acid [4-(2-morpholin-4-yl-2-oxo-ethyl)-piperazin-1-yl]-amide]
25 | 0.003 | O=C(NN1CCc2ccccc21)c1cnc(-c2cccc(F)c2)nc1 [Example 91, 2-(3-Fluoro-phenyl)-pyrimidine-5-carboxylic acid (2,3-dihydro-indol-1-yl)-amide]
26 | 0.0195 | O=C(NN1CCCCC1)c1cnc(-c2cccc(F)c2)nc1 [Example 92, 2-(3-Fluoro-phenyl)-pyrimidine-5-carboxylic acid piperadin-1-yl-amide]
27 | 0.0055 | Cc1nc(-c2ccccc2)ncc1C(=O)NN1CCc2ccccc21 [Example 95, 4-Methyl-2-phenyl-pyrimidine-5-carboxylic acid (2,3-dihydro-indol-1-yl)-amide]
28 | 0.004 | CC1Cc2ccccc2N1NC(=O)c1cnc(-c2ccccc2)nc1 (stereo not drawn) [Example 99, 2-Phenyl-pyrimidine-5-carboxylic acid (2-methyl-2,3-dihydro-indol-1-yl)-amide]
29 | 0.004 | CC1Cc2ccccc2N1NC(=O)c1cnc(-c2cccc(F)c2)nc1 (stereo not drawn) [Example 100, 2-(3-Fluoro-phenyl)-pyrimidine-5-carboxylic acid (2-methyl-2,3-dihydro-indol-1-yl)-amide]
30 | 0.003 | O=C(Nn1ccc2cc(F)ccc21)c1cnc(-c2ccccc2)nc1 [Example 102, 2-Phenyl-pyrimidine-5-carboxylic acid (5-fluoro-indol-1-yl)-amide]
